# Laboratory results reported in patent US9730943B2, “Alkoxy-substituted 2,3-dihydroimidazo[1,2-C]quinazolines” (BAYER INTELLECTUAL PROPERTY GMBH, priority 2010, dated 2017).
# What was measured:
# PI3Kβ = target: T1, PI3Kβ (Homo sapiens, UniProt P42338); test: PI3Kβ kinase assay (HTRF based PI3K inhibition assay); type: biochemical; settings: for inhibition at 0.93 µM: 0.93 μM compound, read-out: PI3K beta average % Inhibition at 0.93 μM; for IC50: complex of human p110β and human p85α, 10 μM ATP, 10 μM PIP2, read-out: average IC50 in the PI3K beta biochemical assay; for PI3K beta average IC50/ PI3K alpha average IC50: ratio of PI3K beta IC50 to PI3K alpha IC50 (A2 and A1)
# T1 construct: N-terminal His6-tagged recombinant full-length human p110β; His6 (N); purchased Millipore 14-603; host or cells: baculovirus infected Sf21 insect cells
# Text: Determination of % Inhibition and IC50 Values of Compounds in PI3Kβ Kinase Assay
# PI3Kβ inhibitory activity of compounds of the present invention was quantified employing the HTRF based PI3K inhibition assay as described below.
# (§1) As reagents for the kinase reaction itself and the quantification of the reaction product, the PI3-Kinase HTRF Assay kit from Millipore (#33-017) was used. With this kit the phosphatidylinositol 3,4,5-trisphosphate (PIP3) generated in the kinase reaction is detected by displacement of a biotinylated ligand from an energy transfer complex consisting of a Europium-labeled anti-GST monoclonal antibody, a GST-tagged PH domain, biotinylated PIP3 and Streptavidin-Allophycocyanin (APC).
# (§2) For the assay 50 nL of a 80-fold concentrated solution of the test compound in DMSO was pipetted into a black low volume 384-well microtiter plate (Greiner Bio-One, Frickenhausen, Germany), 3 μl of a solution of PI3Kβ and phosphatidylinositol-4,5-bisphosphate (PIP2, 13.8 μM=>final conc. in 4 μl reaction volume=10 μM) in 1× reaction buffer (exact composition not disclosed by the vendor) were added and the mixture was incubated for 15 min at 22° C. to allow pre-binding of the test compounds to the enzyme before the start of the kinase reaction. The amount of PI3Kβ was chosen to have the enzyme reaction in the linear range and depended on the activity of the individual lot, typical concentrations in assay were in the range of 120 ng/mL. Then the kinase reaction was started by the addition of 1 μL of a solution of adenosine triphosphate (ATP, 40 μM=>final conc. in the 4 μl assay volume is 10 μM) in reaction buffer and the resulting mixture was incubated for a reaction time of 20 min at 22° C.
# (§3) The reaction was stopped by the addition of 1 μL of an stop solution (containing the biotinylated PIP3 used as a tracer). Then 1 μL detection mix (containing a Europium-labeled anti-GST monoclonal antibody, a GST-tagged PH domain, and Streptavidin-Allophycocyanin) was added and resulting mixture was incubated for 3 h at 22° C. to allow the formation of complexes between the detection reagents and either the PIP3 generated in the kinase reaction, or the biotinylated PIP3 added with the stop solution. Subsequently the amount of energy transfer complex consisting of a Europium-labeled anti-GST monoclonal antibody, a GST-tagged PH domain, biotinylated PIP3 and Streptavidin-Allophycocyanin (APC) was evaluated by measurement of the resonance energy transfer from the Europium-labeled anti-GST monoclonal antibody to the Streptavidin-Allophycocyanin. Therefore, the fluorescence emissions at 620 nm and 665 nm after excitation at 350 nm were measured using a TR-FRET reader, e.g., a Pherastar (BMG Labtechnologies, Offenburg, Germany) or a Viewlux (Perkin-Elmer). The ratio of the emissions at 665 nm and at 622 nm were taken as the measure for the amount of biotinylated PIP3 bound to the GST-tagged PH domain, which is negatively correlated with the amount of PIP3 generated.
# PI3Kα = target: T2, PI3Kα (Homo sapiens, UniProt P42336); test: PI3Kα kinase assay (HTRF-based PI3K inhibition assay); type: biochemical; settings: for inhibition at 0.93 µM: 0.93 μM compound, read-out: PI3K alpha average % Inhibition at 0.93 μM; for IC50: complex of human p110α and human p85α, 10 μM ATP, 10 μM PIP2, read-out: average IC50 in the PI3K alpha biochemical assay
# T2 construct: N-terminal His6-tagged recombinant full-length human p110α; His6 (N); purchased Millipore 14-602; host or cells: baculovirus infected Sf21 insect cells
# Text: Determination of % Inhibition and IC50 Values of Compounds in PI3Kα Kinase Assay
# PI3Kα inhibitory activity of compounds of the present invention was quantified employing the HTRF-based PI3K inhibition assay as described below.
# as §1
# as §2, with “Germany), 3 μL of a” for “Germany), 3 μl of a”, “solution of PI3Kα and phosphatidylinositol-4,5-bisphosphate” for “solution of PI3Kβ and phosphatidylinositol-4,5-bisphosphate”, “amount of PI3Kα was chosen” for “amount of PI3Kβ was chosen”, “range of 90 ng/mL. Then” for “range of 120 ng/mL. Then”, “the 4 μL assay volume” for “the 4 μl assay volume”
# as §3, with “as a tracer), then 1 μL” for “as a tracer). Then 1 μL”, “was incubated 3 h” for “was incubated for 3 h”, “stop solution. Subsequently, the amount” for “stop solution. Subsequently the amount”, “[…] was taken as” for “622 nm were taken as”, “PIP3 generated. […] Normally test compounds were tested on the same microtiter plate at 10 different concentrations in the range of 25 μM to 1.3 nM (25 μM, 8.3 μM, 2.8 μM, 0.93 μM, 0.31 μM, 103 nM, 34 nM, 11 nM, 3.8 nM and 1.3 nM, a dilution series prepared before the assay at the level of the 80-fold conc. stock solutions by serial 1:3 dilutions) in duplicate values for each concentration and […] values were calculated by a 4-parameter fit using in-house software.” for “PIP3 generated.”
# T1 sequence (P42338 whole entry): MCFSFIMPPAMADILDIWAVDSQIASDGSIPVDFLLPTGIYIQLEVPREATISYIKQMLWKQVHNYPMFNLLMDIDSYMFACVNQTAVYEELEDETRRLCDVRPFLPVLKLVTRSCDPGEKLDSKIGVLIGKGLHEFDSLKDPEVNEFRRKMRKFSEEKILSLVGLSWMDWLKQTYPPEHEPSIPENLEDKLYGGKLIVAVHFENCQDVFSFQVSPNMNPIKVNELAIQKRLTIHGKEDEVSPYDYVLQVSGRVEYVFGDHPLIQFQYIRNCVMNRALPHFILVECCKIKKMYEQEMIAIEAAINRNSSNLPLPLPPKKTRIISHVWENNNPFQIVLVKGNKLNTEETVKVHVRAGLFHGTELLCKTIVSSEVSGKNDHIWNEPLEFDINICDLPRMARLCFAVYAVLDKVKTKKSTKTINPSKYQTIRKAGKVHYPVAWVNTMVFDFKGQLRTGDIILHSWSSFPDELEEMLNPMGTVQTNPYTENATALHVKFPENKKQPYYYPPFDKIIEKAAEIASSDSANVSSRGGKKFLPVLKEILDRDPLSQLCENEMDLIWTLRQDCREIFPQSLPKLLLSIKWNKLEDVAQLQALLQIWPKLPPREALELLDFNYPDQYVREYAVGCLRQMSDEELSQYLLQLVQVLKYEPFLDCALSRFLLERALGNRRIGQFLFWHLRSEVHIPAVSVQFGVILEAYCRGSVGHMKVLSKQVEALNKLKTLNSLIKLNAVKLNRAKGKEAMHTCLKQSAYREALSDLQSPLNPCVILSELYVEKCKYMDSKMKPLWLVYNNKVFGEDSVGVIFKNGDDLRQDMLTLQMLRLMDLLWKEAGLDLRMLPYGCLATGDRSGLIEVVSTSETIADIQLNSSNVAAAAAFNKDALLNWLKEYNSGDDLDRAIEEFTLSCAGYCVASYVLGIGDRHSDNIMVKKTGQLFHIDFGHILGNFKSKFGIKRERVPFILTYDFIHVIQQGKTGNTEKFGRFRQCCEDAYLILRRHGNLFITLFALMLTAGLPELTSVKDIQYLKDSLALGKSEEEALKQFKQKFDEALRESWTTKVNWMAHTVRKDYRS
# T1 sequence (P27986 whole entry partner): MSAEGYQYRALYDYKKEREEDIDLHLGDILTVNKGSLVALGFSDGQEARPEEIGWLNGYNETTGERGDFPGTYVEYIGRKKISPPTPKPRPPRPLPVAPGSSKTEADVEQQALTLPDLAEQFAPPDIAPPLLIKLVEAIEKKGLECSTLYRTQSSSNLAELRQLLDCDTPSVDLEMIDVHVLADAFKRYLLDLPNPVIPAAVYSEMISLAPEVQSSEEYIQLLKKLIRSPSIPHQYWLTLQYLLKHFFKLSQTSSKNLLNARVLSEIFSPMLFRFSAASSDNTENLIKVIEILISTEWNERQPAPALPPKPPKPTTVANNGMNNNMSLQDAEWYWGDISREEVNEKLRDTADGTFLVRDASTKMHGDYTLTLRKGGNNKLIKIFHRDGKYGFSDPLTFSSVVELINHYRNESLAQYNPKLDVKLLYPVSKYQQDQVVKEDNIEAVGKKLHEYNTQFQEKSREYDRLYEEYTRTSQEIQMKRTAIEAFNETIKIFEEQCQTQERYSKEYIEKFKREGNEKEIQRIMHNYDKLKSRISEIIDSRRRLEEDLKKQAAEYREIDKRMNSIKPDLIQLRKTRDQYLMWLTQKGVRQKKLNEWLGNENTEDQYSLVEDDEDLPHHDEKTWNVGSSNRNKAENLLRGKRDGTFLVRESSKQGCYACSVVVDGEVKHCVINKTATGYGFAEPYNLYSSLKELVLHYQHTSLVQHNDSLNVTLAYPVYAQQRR
# T2 sequence (P42336 whole entry): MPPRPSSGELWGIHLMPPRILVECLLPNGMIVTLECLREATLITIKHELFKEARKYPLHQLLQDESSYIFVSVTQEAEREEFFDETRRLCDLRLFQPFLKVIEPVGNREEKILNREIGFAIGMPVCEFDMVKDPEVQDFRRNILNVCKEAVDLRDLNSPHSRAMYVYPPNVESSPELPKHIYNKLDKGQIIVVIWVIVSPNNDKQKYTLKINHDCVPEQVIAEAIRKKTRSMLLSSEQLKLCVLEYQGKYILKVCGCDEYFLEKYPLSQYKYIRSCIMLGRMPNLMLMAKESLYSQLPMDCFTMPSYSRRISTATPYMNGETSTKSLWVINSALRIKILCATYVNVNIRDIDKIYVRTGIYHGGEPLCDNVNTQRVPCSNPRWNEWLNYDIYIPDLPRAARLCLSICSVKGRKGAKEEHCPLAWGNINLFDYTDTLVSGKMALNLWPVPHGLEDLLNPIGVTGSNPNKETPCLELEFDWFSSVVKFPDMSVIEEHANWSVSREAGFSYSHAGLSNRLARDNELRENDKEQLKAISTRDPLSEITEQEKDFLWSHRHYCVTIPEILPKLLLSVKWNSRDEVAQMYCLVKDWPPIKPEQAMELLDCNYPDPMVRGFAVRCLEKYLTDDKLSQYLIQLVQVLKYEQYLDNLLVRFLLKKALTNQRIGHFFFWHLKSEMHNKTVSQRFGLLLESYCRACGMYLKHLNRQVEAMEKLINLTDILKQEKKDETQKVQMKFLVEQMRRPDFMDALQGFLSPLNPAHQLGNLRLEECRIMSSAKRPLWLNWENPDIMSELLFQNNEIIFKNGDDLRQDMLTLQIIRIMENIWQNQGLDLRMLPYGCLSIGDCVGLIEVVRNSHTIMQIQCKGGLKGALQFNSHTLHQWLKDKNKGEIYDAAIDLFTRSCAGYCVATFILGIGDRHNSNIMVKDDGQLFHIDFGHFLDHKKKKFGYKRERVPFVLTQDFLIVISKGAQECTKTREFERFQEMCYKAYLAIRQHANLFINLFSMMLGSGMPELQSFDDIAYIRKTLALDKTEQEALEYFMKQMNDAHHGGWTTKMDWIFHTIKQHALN
# T2 sequence (P27986 whole entry partner): as the sequence (P27986 whole entry partner) above
SMILES,inhibition at 0.93 µM (PI3Kβ) [%],IC50 (PI3Kβ) [nM],PI3K beta average IC50/ PI3K alpha average IC50 (PI3Kβ),inhibition at 0.93 µM (PI3Kα) [%],IC50 (PI3Kα) [nM]
"CC(C)N(C[C@@H](O)COc1ccc2c(c1OCCc1ccc(F)cc1)N=C(NC(=O)c1cccnc1)N1CCN=C21)C(C)C [Example 7, N-(8-{[(2R)-3-(dipropan-2-ylamino)-2-hydroxypropyl]oxy}-7-[2-(4-fluorophenyl)ethoxy]-2,3-dihydroimidazo[1,2-c]quinazolin-5-yl)pyridine-3-carboxamide]",90,10 to 50,2.78,91.5,< 10
"O=C(NC1=Nc2c(ccc(OCC(O)CN3CCOCC3)c2OCCc2ccc(F)cc2)C2=NCCN12)c1cccnc1 (stereo not shown) [Example 9, N-{7-[2-(4-Fluorophenyl)ethoxy]-8-[2-hydroxy-3-(morpholin-4-yl)propoxy]-2,3-dihydroimidazo[1,2-c]quinazolin-5-yl}pyridine-3-carboxamide]",102,< 10,0.63,98.8,10 to 50
"COc1c(OC[C@H](O)CN2CCOCC2)ccc2c1N=C(NC(=O)c1cccnc1)N1CCN=C21 [Example 2, N-(8-{[(2R)-2-hydroxy-3-(morpholin-4-yl)propyl]oxy}-7-methoxy-2,3-dihydroimidazo[1,2-c]quinazolin-5-yl)pyridine-3-carboxamide]",94.4,,,,
"C[C@@H]1CN(C[C@@](C)(O)COc2ccc3c(c2OCCc2ccc(F)cc2)N=C(NC(=O)c2cnc(N)nc2)N2CCN=C32)C[C@H](C)O1 (relative stereo) [Example 11, rel-2-Amino-N-{8-({(2R)-3-[(2R,6S)-2,6-dimethylmorpholin-4-yl]-2-hydroxy-2-methylpropyl}oxy)-7-[2-(4-fluorophenyl)ethoxy]-2,3-dihydroimidazo[1,2-c]quinazolin-5-yl}pyrimidine-5-carboxamide]",95.3,10 to 50,9.66,109,< 10

# Next, values leading:
inhibition at 0.93 µM (PI3Kβ) [%],IC50 (PI3Kβ) [nM],PI3K beta average IC50/ PI3K alpha average IC50 (PI3Kβ),inhibition at 0.93 µM (PI3Kα) [%],IC50 (PI3Kα) [nM],SMILES
100,> 50,3.69,104,10 to 50,"C[C@@H]1CN(C[C@@](C)(O)COc2ccc3c(c2OCCc2ccc(F)cc2)N=C(NC(=O)c2cccnc2)N2CCN=C32)C[C@H](C)O1 (relative stereo) [Example 12, rel-N-{8-({(2R)-3-[(2R,6S)-2,6-Dimethylmorpholin-4-yl]-2-hydroxy-2-methylpropyl}oxy)-7-[2-(4-fluorophenyl)ethoxy]-2,3-dihydroimidazo[1,2-c]quinazolin-5-yl}pyridine-3-carboxamide]"
96.7,10 to 50,2.28,99.9,10 to 50,"C[C@@H]1CN(C[C@@H](O)COc2ccc3c(c2OCCc2ccc(F)cc2)N=C(NC(=O)c2cccnc2)N2CCN=C32)C[C@H](C)O1 [Example 8, N-{8-({(2R)-3-[(2R,6S)-2,6-Dimethylmorpholin-4-yl]-2-hydroxypropyl}oxy)-7-[2-(4-fluorophenyl)ethoxy]-2,3-dihydroimidazo[1,2-c]quinazolin-5-yl}pyridine-3-carboxamide]"
81.6,> 50,8.95,93.2,< 10,"COc1c(OC[C@](C)(O)CN2C[C@@H](C)O[C@@H](C)C2)ccc2c1N=C(NC(=O)c1cccnc1)N1CCN=C21 (relative stereo) [Example 10, rel-N-[8-({(2R)-3-[(2R,6S)-2,6-Dimethylmorpholin-4-yl]-2-hydroxy-2-methylpropyl}oxy)-7-methoxy-2,3-dihydroimidazo[1,2-c]quinazolin-5-yl]pyridine-3-carboxamide]"
